# According to PMC7180456, “Multitarget Anticancer Agents Based on Histone Deacetylase and Protein Kinase CK2 Inhibitors” (Molecules, 2020):
# Like-named read-outs stand apart in the source and are kept apart here.
# Tests used:
# [1] = target: T1, human recombinant HDAC1 (Homo sapiens, UniProt Q13547); assay: HDAC1 inhibition, fluorometric method (Enzo Fluorometric Drug Discovery Assay Kit); assay type: biochemical; settings: read-out: Inhibitory activity IC50 on HDAC1
# T1 construct: purchased Enzo Life Sciences, Inc
# Method: The inhibitory activities of the synthesized compounds were determined against CK2 and HDAC1 and the IC50 values are collected in Table 1. The activity towards human recombinant HDAC1 was tested using a fluorometric method. CK2 inhibitory activity was determined by a radiometric method, using a short peptide ([…]) as a substrate.
# (§1) 15 µL of HDAC1 (0.4 µg/well) or HDAC6 (0.5 µg/well) were incubated at 37 °C for 30 minutes with 10 µL of inhibitor diluted in 5% DMSO and 25 µL of fluorogenic substrate (0.05 µL/well of 5 mM solution). Reactions were stopped with the developer and trichostatin A, diluted in buffer without BSA, and the plate was incubated at 30 °C for 45 min, followed by measuring the fluorescence (Ex. 360 nm, Em. 450 nm, Fluoroskan, Thermo Scientific).
# [2] = target: T2, HDAC6 (Homo sapiens, UniProt Q9UBN7); assay: HDAC6 inhibition, fluorometric method (Enzo Fluorometric Drug Discovery Assay Kit); assay type: biochemical; settings: read-out: Inhibitory activity IC50 on HDAC6
# T2 construct: purchased Enzo Life Sciences, Inc
# T2 sequence (Q9UBN7 1-1215): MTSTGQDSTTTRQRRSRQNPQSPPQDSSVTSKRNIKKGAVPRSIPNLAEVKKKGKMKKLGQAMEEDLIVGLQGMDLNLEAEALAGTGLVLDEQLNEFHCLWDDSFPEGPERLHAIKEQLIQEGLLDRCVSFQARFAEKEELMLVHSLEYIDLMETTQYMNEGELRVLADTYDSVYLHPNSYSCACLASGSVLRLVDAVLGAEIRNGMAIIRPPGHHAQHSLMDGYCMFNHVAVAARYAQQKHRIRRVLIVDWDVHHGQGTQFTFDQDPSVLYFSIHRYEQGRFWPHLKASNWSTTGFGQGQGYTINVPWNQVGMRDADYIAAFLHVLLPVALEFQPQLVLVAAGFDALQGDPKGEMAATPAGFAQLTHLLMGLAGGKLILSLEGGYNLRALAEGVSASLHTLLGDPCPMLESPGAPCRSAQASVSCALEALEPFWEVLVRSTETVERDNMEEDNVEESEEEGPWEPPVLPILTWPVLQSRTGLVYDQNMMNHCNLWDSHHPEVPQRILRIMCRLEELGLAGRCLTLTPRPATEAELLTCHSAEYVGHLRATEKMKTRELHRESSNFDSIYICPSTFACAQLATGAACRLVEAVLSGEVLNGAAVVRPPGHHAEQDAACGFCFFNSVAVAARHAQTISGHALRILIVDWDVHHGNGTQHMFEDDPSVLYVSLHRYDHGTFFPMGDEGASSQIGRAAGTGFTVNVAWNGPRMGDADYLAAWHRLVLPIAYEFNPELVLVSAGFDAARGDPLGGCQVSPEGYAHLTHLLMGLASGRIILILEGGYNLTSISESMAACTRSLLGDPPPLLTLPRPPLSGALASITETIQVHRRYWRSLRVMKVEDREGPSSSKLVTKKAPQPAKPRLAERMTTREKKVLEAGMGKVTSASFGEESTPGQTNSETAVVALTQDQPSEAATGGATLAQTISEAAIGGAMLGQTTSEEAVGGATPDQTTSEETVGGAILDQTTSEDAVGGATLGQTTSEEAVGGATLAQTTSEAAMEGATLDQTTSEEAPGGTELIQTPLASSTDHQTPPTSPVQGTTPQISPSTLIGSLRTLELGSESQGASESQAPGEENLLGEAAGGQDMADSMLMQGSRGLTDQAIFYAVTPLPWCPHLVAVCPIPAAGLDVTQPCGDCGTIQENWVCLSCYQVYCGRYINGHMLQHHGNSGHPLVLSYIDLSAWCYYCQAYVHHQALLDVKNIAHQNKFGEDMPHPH
# Method: For this reason, we analyzed the activity of 15 and 19, together with other compounds from the alkyl and triazole series in HDAC6, tested using a fluorometric method (Table 1).
# as §1
# [3] = target: T3, human recombinant CK2α (Homo sapiens, UniProt P68400); assay: CK2 inhibition, radiometric method with peptide substrate […]; assay type: biochemical; settings: for IC50: radiometric method, 20 µM ATP, read-out: Inhibitory activity IC50 on CK2
# T3 construct: GST; made in house; host or cells: bacteria
# Method: The activity towards human recombinant HDAC1 was tested using a fluorometric method. CK2 inhibitory activity was determined by a radiometric method, using a short peptide ([…]) as a substrate.
# Recombinant human protein kinase GST-CK2 was produced in bacteria and purified as described elsewhere. […] The reaction buffer contained 20 µM [γ-32P] ATP (specific radioactivity 300–1000 cpm/pmol), 15 mM Mg^2+, 20 mM Tris–HCl pH 7.5, and 6 mM 2-mercaptoethanol. 10 µL of the assay mixture was spotted onto a square (1 cm/1 cm) of Whatman P81 paper and allowed to dry. Each square was immersed in cold 0.5% phosphoric acid, and washed three times during 10 min, allowed to dry and transferred into a vessel containing Opti-Phase liquid (scintillation solution) and radioactivity was quantified using a scintillation counter (MicroBeta, Perkin Elmer) by Cerenkov counting. All experiments were performed in triplicate. IC50 values were calculated using GraphPad Prism (version 4.0) software.
# [4] = test system: CK2; settings: Figure 1; read-out: IC50 of representative CK2 inhibitors; cited from earlier work
# [5] = test system: human tumor and pseudonormal cell lines; assay: Cytotoxicity, trypan blue assay, range over the cell lines tested; assay type: cell-based; settings: 24 h, read-out: LC50 range depending on cell line
# Description: (§2) Statistical significance was set at P ≤ 0.05.
# [6] = test system: Jurkat T-leukemia cells; assay: Cytotoxicity, trypan blue exclusion assay, 24 h; settings: Homo sapiens
# [7] = Cytotoxicity, trypan blue exclusion assay, 24 h (pseudonormal cells); settings: human, HEK293 embryonic kidney cells (pseudonormal)
# [8] = test system: leukemia cells of HL-60 line; assay: Cytotoxicity, trypan blue exclusion assay, 24 h; assay type: cell-based; settings: Homo sapiens
# Description: (§3) Taking into consideration the high abundance of CK2 kinase in leukemia and lymphomas, the ability of selected CK2-HDAC dual inhibitors to circumvent MDR was investigated in human leukemia cells of HL-60 line and its doxorubicin-resistant (HL-60/adr, MRP-1 overexpression) and vincristine-resistant (HL-60/vinc, P-gp overexpression) sublines.
# as §2
# [9] = test system: HL-60/vinc (vincristine-resistant, P-gp overexpression); assay: Cytotoxicity, trypan blue exclusion assay, 24 h; assay type: cell-based; settings: for CC50: Homo sapiens, HL60/vinc
# Description: as §3, §2
# [10] = test system: HL-60/adr (doxorubicin-resistant, MRP-1 overexpression); assay: Cytotoxicity, trypan blue exclusion assay, 24 h; assay type: cell-based; settings: Homo sapiens, HL60/ADR
# Description: as §3, §2
# [11] = test system: breast adenocarcinoma cells of MCF-7 line; assay: Cytotoxicity, trypan blue exclusion assay, 24 h; settings: Homo sapiens
# [12] = test system: HCT-116 colon carcinoma cells; assay: Cytotoxicity, trypan blue exclusion assay, 24 h; settings: Homo sapiens
# [13] = test system: HL-60/wt cells; assay: Depolarization of mitochondria, JC-1 assay, FACS; assay type: cell-based, human; settings: 24 h
# [14] = 24 h, read-out: LC50 Values of Compounds for Cell Line, Jurkat
# [15] = read-out: LC50 values of compounds for cell line, Jurkat
# [16] = LC50 Values of Compounds for Cell Line, HEK293, Table 2, trypan blue, 24 h, M ± SD
# [17] = LC50 values of compounds for cell line, HEK293, supplement Table 4S, M±SD
# [18] = Table 2, trypan blue, 24 h, M ± SD, read-out: LC50 Values of Compounds for Cell Line, HL-60
# [19] = supplement Table 4S, M±SD, read-out: LC50 values of compounds for cell line, HL-60
# [20] = Table 2, trypan blue, 24 h, M ± SD, read-out: LC50 Values of Compounds for Cell Line, HL-60/vinc
# [21] = supplement Table 4S, M±SD, read-out: LC50 values of compounds for cell line, HL-60/vinc
# [22] = Table 2, trypan blue, 24 h, M ± SD, read-out: LC50 Values of Compounds for Cell Line, HL-60/adr
# [23] = supplement Table 4S, M±SD, read-out: LC50 values of compounds for cell line, HL-60/adr
# [24] = MCF7, 24 h, read-out: LC50 Values of Compounds for Cell Line, MCF-7
# [25] = MCF7, read-out: LC50 values of compounds for cell line, MCF-7
# [26] = HCT-116, 24 h, read-out: LC50 Values of Compounds for Cell Line, HCT-116
# [27] = HCT-116, read-out: LC50 values of compounds for cell line, HCT-116
# T1 sequence (Q13547 whole entry): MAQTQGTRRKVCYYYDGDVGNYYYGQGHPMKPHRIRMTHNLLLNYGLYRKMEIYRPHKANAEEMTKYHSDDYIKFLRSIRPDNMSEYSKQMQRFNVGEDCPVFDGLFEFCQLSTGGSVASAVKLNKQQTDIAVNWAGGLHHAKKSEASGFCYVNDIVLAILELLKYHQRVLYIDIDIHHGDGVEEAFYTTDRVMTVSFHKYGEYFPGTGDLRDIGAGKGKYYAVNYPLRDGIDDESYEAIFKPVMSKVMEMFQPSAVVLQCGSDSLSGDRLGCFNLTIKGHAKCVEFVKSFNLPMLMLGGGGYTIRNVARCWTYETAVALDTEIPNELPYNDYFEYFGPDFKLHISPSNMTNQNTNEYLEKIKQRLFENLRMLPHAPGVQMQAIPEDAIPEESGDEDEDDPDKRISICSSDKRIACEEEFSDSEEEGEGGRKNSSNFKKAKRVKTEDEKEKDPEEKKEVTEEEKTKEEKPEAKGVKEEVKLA
# T3 sequence (P68400 whole entry): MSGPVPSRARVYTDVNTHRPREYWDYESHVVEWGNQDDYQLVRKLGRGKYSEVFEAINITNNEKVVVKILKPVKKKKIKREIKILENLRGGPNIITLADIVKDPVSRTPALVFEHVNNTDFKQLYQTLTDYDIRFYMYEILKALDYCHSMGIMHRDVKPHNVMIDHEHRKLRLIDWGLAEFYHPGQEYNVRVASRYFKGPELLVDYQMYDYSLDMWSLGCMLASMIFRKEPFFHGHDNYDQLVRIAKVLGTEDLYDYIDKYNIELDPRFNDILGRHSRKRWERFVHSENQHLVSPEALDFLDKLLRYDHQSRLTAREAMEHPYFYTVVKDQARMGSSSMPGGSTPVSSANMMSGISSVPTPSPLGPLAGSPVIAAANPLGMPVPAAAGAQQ
Compound,IC50 [1] [µM],IC50 [3] [µM],IC50 [2] [µM],CC50 [5] [µM],"CC50 [6, 14] [µM]","CC50 [6, 15] [µM]","CC50 at 24 h [7, 16] [µM]","CC50 at 24 h [7, 17] [µM]","CC50 [8, 18] [µM]","CC50 [8, 19] [µM]","CC50 [9, 20] [µM]","CC50 [9, 21] [µM]","CC50 [10, 22] [µM]","CC50 [10, 23] [µM]","CC50 [11, 24] [µM]","CC50 [11, 25] [µM]","CC50 [12, 26] [µM]","CC50 [12, 27] [µM]",also measured
"CN(C)c1nc2c(Br)c(Br)c(Br)c(Br)c2n1CCCCCCCC(=O)NO [Compound 11d, N-Hydroxy-8-(4,5,6,7-tetrabromo-2-(dimethylamino)-1H-benzo[d]imidazol-1-yl)octanamide]",13.7,–,8.98,3 to 8,5.3 ± 0.75,14.2,8.41 ± 1.26,> 30,4.69 ± 0.54,29.7,2.32 ± 1.06,> 30,8.4 ± 1.21,15.1,9.02 ± 0.9,27.8,3.1 ± 0.37,16.9,change of activity towards P-gp overexpressing HL-60/vinc cells versus HL-60/wt ([9]; 24 h): increased twofold; level of depolarized mitochondria ([13]; dose not stated in the sentence (10 µM and 30 µM tested)): 53.23%
"CN(C)c1nc2c(Br)c(Br)c(Br)c(Br)c2n1CCCCCC(=O)NO [Compound 11b, N-Hydroxy-6-(4,5,6,7-tetrabromo-2-(dimethylamino)-1H-benzo[d]imidazol-1-yl)hexanamide]",1.46,–,0.66,4 to 23,10.2 ± 1.43,10,23.3 ± 4.38,13.6,7.67 ± 1.17,6.59,16.8 ± 3.34,12.7,16.2 ± 1.68,10.6,15.7 ± 2.54,9.97,4.22 ± 0.46,1.9,depolarization of mitochondria ([13]; 10 µM): 14.55%; depolarization of mitochondria ([13]; 30 µM): 34.06%

# The next lines start with results.
IC50 [1] [µM],IC50 [3] [µM],Compound,IC50 [2] [µM],CC50 [5] [µM],"CC50 [6, 14] [µM]","CC50 [6, 15] [µM]","CC50 at 24 h [7, 16] [µM]","CC50 at 24 h [7, 17] [µM]","CC50 [8, 18] [µM]","CC50 [8, 19] [µM]","CC50 [9, 20] [µM]","CC50 [9, 21] [µM]","CC50 [10, 22] [µM]","CC50 [10, 23] [µM]","CC50 [11, 24] [µM]","CC50 [11, 25] [µM]","CC50 [12, 26] [µM]","CC50 [12, 27] [µM]",also measured
4.22,136,"O=C(NO)c1ccc(Cn2nnc3c(Br)c(Br)c(Br)c(Br)c32)cc1 [Compound 15b, N-Hydroxy-4-((tetrabromo-1H-benzo[d][1,2,3]triazol-1-yl)methyl)benzamide]",2.7,–,–,–,–,–,–,–,–,–,–,–,–,–,–,–,–
62,34.2,"CN(C)c1nc2c(Br)c(Br)c(Br)c(Br)c2n1CCCCC(=O)NO [Compound 11a, N-Hydroxy-5-(4,5,6,7-tetrabromo-2-(dimethylamino)-1H-benzo[d]imidazol-1-yl)pentanamide]",–,–,–,–,–,–,–,–,–,–,–,–,–,–,–,–,–
1.43,85.1,"CN(C)c1nc2c(Br)c(Br)c(Br)c(Br)c2n1Cc1cn(CCCC(=O)NO)nn1 [Compound 7a, N-Hydroxy-4-(4-((4,5,6,7-tetrabromo-2-(dimethylamino)-1H-benzo[d]imidazol-1-yl)methyl)-1H-1,2,3-triazol-1-yl)butanamide]",–,–,–,–,–,–,–,–,–,–,–,–,–,–,–,–,fold less active in CK2 (than in HDAC1) ([3]; CK2 IC50 versus HDAC1 IC50): 60 fold
